Laboratory results published in US9925274B2, “Delphinidin complex as an antiphlogistic or immunosuppressive active ingredient” (priority 2012, dated 2018).
Entries after “also recorded” stand apart in the source; their conditions may differ. Read-outs that look alike come from different tables or passages of the source.

Assays:
[1] = Stability experiments in aqueous solution: 0.9% NaCl, 37° C., delphinidin content by HPLC (Example 5); type: physicochemical; settings: dark, start 1.584 mg/ml (complex) or 0.0216 mg/ml (uncomplexed)
Experimental: The content of delphinidin chloride in the delphinidin-containing solutions was determined by using a reverse-phase HPLC method similar to the one already described above. This used the following reagents: • Purified water • Methanol for chromatography • Formic acid, p. a. • 1 M Hydrochloric acid as volumetric solution.
The solutions were produced at room temperature and then stored in closed vials in the dark at 37° C.
After 1, 2, 3 and 4 h, the delphinidin content was determined. The table below specifies the ascertained content as a percentage of the above-stated starting concentration.

NFKB = experiment: Concentration of NFKB in the nucleus of monocytes after stimulation with LPS and/or delphinidin (immunofluorescence nuclear staining; Examples 6-8); type: cell-based; set-up: Inhibitory effect on the cell immune response compared to hydrocortisone: dose or concentration left out as unconfirmed
Experimental: For healthy test subjects, the concentration of NFKB in the nucleus of monocytes after stimulation with LPS and/or delphinidin was assayed by means of immunofluorescence nuclear staining for NFKB and expressed in relation to nonstimulated cells. NFKB is activated by various stimuli, especially inflammatory and stress-associated stimuli.
The following procedure was carried out and shown in FIG. 1 from left to right, with the stimulation/incubation of the cells (1 ml in each case of RPMI-1640 comprising 1 million cells in the exponential growth phase) taking place at 37° C. in a well of a 24-well polystyrene cell culture dish and the specified concentrations being final concentrations: • “1.5 h 10 μg LPS”—Stimulation of the cells for 1.5 h with 10 μg/ml LPS (control) • “24 h prestim. 5 μM Del-Cl; 1.5 h 10 μg LPS”—24 h prestimulation of the cells with 5 μM delphinidin chloride (dissolved in RPMI-1640 cell medium) and then 1.5 h stimulation with 10 μg/ml LPS • “1.5 h 5 μM Del-Cl+10 μg LPS”—1.5 h simulation of the cells with 10 μg/ml LPS and 5 μM delphinidin chloride (dissolved in RPMI-1640 cell medium) • “24 h prestim. 5 μM Del-Cl; 1.5 h 5 μM Del-Cl”—24 h prestimulation of the cells with 5 μM delphinidin chloride (dissolved in RPMI-1640 cell medium) and then renewed stimulation with 5 μM delphinidin chloride (dissolved in RPMI-1640 cell medium) for 1.5 h • “24 h prestim. 5 μM Del-Cl; 1.5 h 5 μM Del-Cl+10 μg LPS”—24 h prestimulation of the cells with 5 μM delphinidin chloride (dissolved in RPMI-1640 cell medium) and then renewed stimulation with 5 μM delphinidin chloride (dissolved in RPMI-1640 cell medium) and 10 μg/ml LPS for 1.5 h
A procedure analogous to the methodology in example 5 was carried out and shown in FIGS. 2a and 2b from left to right, with the stimulation/incubation of the cells (1 ml in each case of RPMI-1640 comprising 1 million cells in the exponential growth phase) taking place at 37° C. in a well of a 24-well polystyrene cell culture dish and the specified concentrations being final concentrations:
FIG. 2a: • “1.5 h 10 μg LPS”—Stimulation of the cells for 1.5 h with 10 μg/ml LPS (control) • “1.5 h 5 μM Del-Cl+10 μg LPS”—1.5 h simulation of the cells with 10 μg/ml LPS and 5 μM delphinidin chloride (dissolved in RPMI-1640 cell medium) • “1.5 h hydrocortisone+10 μg LPS”—Stimulation of the cells for 10^−5 M hydrocortisone and 10 μg/ml LPS for 1.5 h
FIG. 2b: • “1.5 h 10 μg LPS”—Stimulation of the cells for 1.5 h with 10 μg/ml LPS (control) • “1.5 h 10 μM Del-Cl+10 μg LPS”—1.5 h simulation of the cells with 10 μg/ml LPS and 10 μM delphinidin chloride (dissolved in RPMI-1640 cell medium)
A procedure analogous to the methodology in examples 5 and 6 was carried out and shown in FIG. 3 from left to right, with the stimulation/incubation of the cells (1 ml in each case of RPMI-1640 comprising 1 million cells in the exponential growth phase) taking place at 37° C. in a well of a 24-well polystyrene cell culture dish and the specified concentrations being final concentrations: • “1.5 h 2.5 μM Del-Cl”—1.5 h stimulation of the cells with 2.5 μM delphinidin chloride (dissolved in RPMI-1640 cell medium) • “1.5 h 5 μM Del-Cl”—1.5 h simulation of the cells with 5 μM delphinidin chloride (dissolved in RPMI-1640 cell medium) • “1.5 h 10 μM Del-Cl”—1.5 h stimulation of the cells with 10 μM delphinidin chloride (dissolved in RPMI-1640 cell medium) • “1.5 h hydrocortisone”—1.5 h stimulation of the cells with […] hydrocortisone

[2] = test system: tight junction protein claudin-5 mRNA expression in cEND cells; experiment: claudin-5 mRNA expression in cEND cells with or without TNFα (Example 10); type: cell-based, murine
Excerpt: The surrogate marker used for the tightness of the barrier was the expression of the tight junction protein claudin-5 (Forster C. Tight junctions and the modulation of barrier function in disease. Histochem Cell Biol. 2008; 130: 55-70) and the procedure carried out was analogous to example 8.

[3] = test system: Cc17 [chemokine (C—C motif) ligand 7] mRNA expression in cEND cells; settings: for Effect on the TNFα-induced rise in Cc17 mRNA expression: TNFα 24 h
[4] = Solubility of delphinidin chloride in aqueous cyclodextrin solutions (Example 1); settings: neutral aqueous solution with 10% by weight cyclodextrin (β-CD 2%) or pure water; excess delphinidin chloride; stirred in the dark at 30° C. for 20 h; 0.22 μm filtration
[5] = conclusion from the measured results

SMILES: Oc1cc(O)c2cc(O)c(-c3cc(O)c(O)c(O)c3)[o+]c2c1.[Cl-] [delphinidin, Delphinidin chloride]
- Delphinidin content as a percentage of the starting concentration ([1]; 0 h): 100%
- Delphinidin content as a percentage of the starting concentration ([1]; 1 h): 8.3%
- Delphinidin content as a percentage of the starting concentration ([1]; 2 h): 6.5%
- Delphinidin content as a percentage of the starting concentration ([1]; 3 h): 5.6%
- Delphinidin content as a percentage of the starting concentration ([1]; 4 h): 5.1%
- Inhibition of the LPS-mediated immune response (NFKB in the nucleus) (NFKB; 1.5 h 5 μM Del-Cl + 10 μg/ml LPS simultaneously, FIG. 1, FIG. 2a): inhibition of the immune response; also recorded: inhibited at least just as well as by means of addition of hydrocortisone
- Inhibition of the LPS-mediated immune response (NFKB in the nucleus) (NFKB; 1.5 h 10 μM Del-Cl + 10 μg/ml LPS, repeat experiment FIG. 2b): significantly reduced
- Inhibition of the cell immune response with varying concentration (NFKB in the nucleus) (NFKB; 1.5 h 2.5, 5 and 10 μM Del-Cl, without LPS, FIG. 3): increase in the delphinidin-mediated inhibition of the cell immune response (dose effect)
- Inhibition of the LPS-mediated immune response (NFKB in the nucleus) (NFKB; 24 h prestimulation 5 μM Del-Cl, then 1.5 h 5 μM Del-Cl + 10 μg/ml LPS, FIG. 1): further intensified (additive effect)
- Inhibition of the LPS-mediated immune response (NFKB in the nucleus) (NFKB; 24 h prestimulation with 5 μM Del-Cl, then 1.5 h 10 μg/ml LPS, FIG. 1): (weakly) inhibits
- Inhibitory effect on the cell immune response compared to hydrocortisone (NFKB; appropriately high delphinidin concentration, 1.5 h, comparison hydrocortisone, FIG. 3): comparable to that of hydrocortisone
- Effect on the TNFα-mediated decrease in claudin-5 mRNA expression ([2]; then delphinidin 0.1 μM, FIG. 5): counteracted this TNFα-mediated decrease
- Effect on the TNFα-mediated decrease in claudin-5 mRNA expression ([2]; then delphinidin 1 μM, FIG. 5): counteracted this TNFα-mediated decrease
- Barrier of the blood-brain barrier after inflammation [2, 5]: strongly increases
- Effect on claudin-5 mRNA expression without prior TNFα exposure ([2]; delphinidin alone in the cell culture medium, FIG. 5): increase in claudin-5 mRNA expression
- Effect on the TNFα-induced rise in Cc17 mRNA expression ([3]; then delphinidin 0.1 μM for a further 24 h, FIG. 4): distinct suppression or inhibition
- Effect on the TNFα-induced rise in Cc17 mRNA expression ([3]; then delphinidin 1 μM for a further 24 h, FIG. 4): distinct suppression or inhibition
- Antiphlogistic effect on the blood-brain barrier after inflammation relative to dexamethasone [3, 5]: at least equivalent
- Effect on Cc17 expression without prior TNFα exposure ([3]; delphinidin alone in the cell culture medium, FIG. 4): suppression of Cc17 expression
- Attainable solubility, Delphinidin chloride [4]: 70 µg/mL

SMILES: C[C@]12CCC(=O)C=C1CC[C@@H]1[C@@H]2[C@@H](O)C[C@@]2(C)[C@H]1CC[C@]2(O)C(=O)CO [hydrocortisone, reference compound]
- Inhibition of the LPS-mediated immune response (NFKB in the nucleus) (NFKB; 1.5 h 10^−5 M hydrocortisone + 10 μg/ml LPS, FIG. 2a): inhibited
